# According to patent EP4818168A1, “FUSED RING COMPOUND, PHARMACEUTICAL COMPOSITION THEREOF AND USE THEREOF” (priority 2023, dated 2025):
# Read-outs that look alike come from different tables or passages of the source.
# Legend:
# Type in all cases: cell-based
# [1] = test system: HCC1806 cells; test: CTG assay of compound inhibition on cell viability (HCC1806 cells); settings: Homo sapiens, read-out: IC50 in HCC1806 Cells
# Procedure: CellTiter-Glo (CTG) is a rapid cell viability test method based on ATP detection. […] Adenosine triphosphate (ATP) participates in various enzymatic reactions in organisms and is an indicator of living cell metabolism. Its content directly reflects the number of living cells and cell status. During the experiment, equal volume of CTG reagent is added to the cultured cells to measure the luminescence value. The chemiluminescent signal value is proportional to the amount of ATP, thus reflecting the number of viable cells. Therefore, cell viability can be obtained by detecting the ATP content. Compounds that affect cell viability will inhibit cell viability in a concentration-dependent manner, allowing a curve to be fitted to obtain the IC50 value.
# The experimental procedure is as follows: • 11. Place the cell suspension in a 15 mL centrifuge tube, centrifuge at 1000 rpm for 5 min at room temperature, discard the supernatant, and collect the cell pellet. • 12. Resuspend the cell pellet with preheated complete cell culture medium (RPMI1640+10%FBS+1%PS), and use a Countess® automated cell counter to detect cell viability and density. The cell viability must be above 90%. • 13. […] Transfer the compound solution to a 96-well plate seeded with cells (final concentration of DMSO 0.1%), and place in a cell incubator at 37°C, 5% CO2 for 6 days. • 15. […] Protect from light during the whole process. Perform optical signal readings using a SpectraMax i3x reader. • 16. Data analysis: Remaining activity (%) = 100% * (1 - ((LumDMSO - Lummedium) - Lumsample) / (LumDMSO - LumPBS/medium)). Use GraphPad Prism 9.0 software to draw an S-shaped dose-survival rate curve and calculate the IC50 value using a nonlinear regression model.
# [2] = biological target: T1, AURKA (Homo sapiens, UniProt O14965)
# T1 construct: endogenous in cells; host or cells: Jurkat cells
# T1 sequence (O14965 1-403): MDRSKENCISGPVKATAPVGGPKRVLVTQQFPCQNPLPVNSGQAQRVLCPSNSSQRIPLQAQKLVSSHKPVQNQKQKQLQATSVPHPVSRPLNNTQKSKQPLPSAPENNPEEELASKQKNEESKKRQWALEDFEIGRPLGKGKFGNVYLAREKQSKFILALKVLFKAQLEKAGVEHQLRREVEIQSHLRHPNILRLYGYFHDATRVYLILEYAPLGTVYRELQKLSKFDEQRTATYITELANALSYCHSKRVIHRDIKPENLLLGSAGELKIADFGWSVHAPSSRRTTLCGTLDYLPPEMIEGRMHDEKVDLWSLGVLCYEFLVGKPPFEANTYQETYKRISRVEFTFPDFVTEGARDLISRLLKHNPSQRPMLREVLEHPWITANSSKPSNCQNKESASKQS
# In short: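 AURKA degradation read by western blot: band signal, fluorescent or chemiluminescent, curve-fitted to derive DC50. Cells were Jurkat, plated at 1×10^6 cells/500 µL with compound, then lysed and blotted onto nitrocellulose, primary antibody overnight at 4°C.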
# [3] = test system: H82 cells; test: cells; settings: Homo sapiens
# In short: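 After 6 days' compound treatment at 37 °C (final DMSO 0.1%, RPMI1640/10% FBS), viable H82 cells were quantified by ATP-dependent CellTiter-Glo luminescence. Remaining activity was calculated against DMSO and medium wells, and a sigmoidal fit gave IC50.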
# [4] = 100 nM compound, Jurkat cells, 24 h, Table 1
# [5] = 1 µM compound, Jurkat cells, 24 h, Table 1
# [6] = NCI-H82, H82 cells, 4000 cells/well, CellTiter-Glo, read-out: IC50 in H82 Cells
# [7] = 100 nM compound, Jurkat cells, 24 h, Table 2
# [8] = 1 µM compound, Jurkat cells, 24 h, Table 2
# [9] = NCI-H82, read-out: IC50 in H82 Cells
Compound,"IC50 ([1]; HCC1806, 144 h)","Percentage of AURKA Degradation Induced by 100 nM Compound in Jurkat Cells [2, 4]","Percentage of AURKA Degradation Induced by 1 µM Compound in Jurkat Cells [2, 5]","IC50 [3, 6]","Percentage of AURKA Degradation Induced by 100 nM Compound in Jurkat Cells [2, 7]","Percentage of AURKA Degradation Induced by 1 µM Compound in Jurkat Cells [2, 8]",further results
COc1cc(Nc2ncc3c(n2)-c2ccc(Cl)cc2C(c2c(F)cccc2OC)=NC3)ccc1C(=O)N1CCC2(CCN(c3ccc(N4CCC(=O)NC4=O)cc3)CC2)C1 [Compound A36],< 1000 nM,+ (Degradation ≤ 30%),+ (Degradation ≤ 30%),,,,
COc1cc(Nc2ncc3c(n2)-c2ccc(Cl)cc2C(c2c(F)cccc2OC)=NC3)ccc1C(=O)NC1CC2(CCN(c3ncc(N4CCC(=O)NC4=O)s3)CC2)C1 [Compound A80],< 1000 nM,++ (30% < Degradation ≤ 70%),+++ (Degradation > 70%),,,,
COc1cc(Nc2ncc3c(n2)-c2ccc(Cl)cc2C(c2c(F)cccc2OC)=NC3)ccc1C(=O)NCCN1CCN(c2ccc(C3CCC(=O)NC3=O)cc2)CC1 (centres unmarked) [Compound A47],< 1000 nM,,,,,,Percentage of AURKA Degradation Induced by 100 nM Compound in Jurkat Cells [2]: ++ (key: +: Degradation ≤ 30%; ++: 30% < Degradation ≤ 70%; +++: Degradation > 70%); Percentage of AURKA Degradation Induced by 1 µM Compound in Jurkat Cells [2]: + (key: +: Degradation ≤ 30%; ++: 30% < Degradation ≤ 70%; +++: Degradation > 70%)
COc1cc(Nc2ncc3c(n2)-c2ccc(Cl)cc2C(c2c(F)cccc2OC)=NC3)ccc1C(=O)NC1CN(CCc2ccc(N3CCC(=O)NC3=O)cc2)C1 [Compound A48],< 1000 nM,+ (Degradation ≤ 30%),+ (Degradation ≤ 30%),,,,
COc1cc(Nc2ncc3c(n2)-c2ccc(Cl)cc2C(c2c(F)cccc2OC)=NC3)ccc1C(=O)NCC1CCN(Cc2ccc(N3CCC(=O)NC3=O)cc2)CC1 [Compound A27],1000 to 10000 nM,+ (Degradation ≤ 30%),+ (Degradation ≤ 30%),,,,
COc1cc(Nc2ncc3c(n2)-c2ccc(Cl)cc2C(c2c(F)cccc2OC)=NC3)ccc1C(=O)NC1CN(CCOc2cccc3c2C(=O)N(C2CCC(=O)NC2=O)C3=O)C1 (centres unmarked) [Compound A5],,++ (30% < Degradation ≤ 70%),++ (30% < Degradation ≤ 70%),,,,"IC50 ([1]; 144 h, HCC1806 cells, 6 days, CellTiter-Glo): < 1000 nM"
COc1cc(Nc2ncc3c(n2)-c2ccc(Cl)cc2C(c2c(F)cccc2OC)=NC3)ccc1C(=O)NCCN1CCC(c2ccc(N3CCC(=O)NC3=O)cc2)CC1 [Compound A15],< 1000 nM,+++ (Degradation > 70%),+++ (Degradation > 70%),,,,
COc1cccc(F)c1C1=NCc2cnc(Nc3ccc(C(=O)NC45CC(C#Cc6cccc(N7CCC(=O)NC7=O)c6)(C4)C5)cc3)nc2-c2ccc(Cl)cc21 [Compound A77],1000 to 10000 nM,,,,,,Percentage of AURKA Degradation Induced by 100 nM Compound in Jurkat Cells [2]: ++ (key: +: Degradation ≤ 30%; ++: 30% < Degradation ≤ 70%; +++: Degradation > 70%); Percentage of AURKA Degradation Induced by 1 µM Compound in Jurkat Cells [2]: ++ (key: +: Degradation ≤ 30%; ++: 30% < Degradation ≤ 70%; +++: Degradation > 70%)
O=C1CCN(c2cnc(N3CCN(CCNC(=O)c4ccc(Nc5ncc6c(n5)-c5ccc(Cl)cc5C(c5c(F)cccc5F)=NC6)cc4)CC3)s2)C(=O)N1 [Compound A25],< 1000 nM,+++ (Degradation > 70%),++ (30% < Degradation ≤ 70%),,,,
COc1cc(Nc2ncc3c(n2)-c2ccc(Cl)cc2C(c2c(F)cccc2OC)=NC3)ccc1C(=O)N1CCC2(C1)CN(c1ccc(N3CCC(=O)NC3=O)cc1)C2 [Compound A44],< 1000 nM,+ (Degradation ≤ 30%),+ (Degradation ≤ 30%),,,,
COc1cc(Nc2ncc3c(n2)-c2ccc(Cl)cc2C(c2c(F)cccc2OC)=NC3)ccc1C(=O)NC1CC(C#Cc2cccc(N3CCC(=O)NC3=O)c2)C1 (centres unmarked) [Compound A50],< 1000 nM,,,,,,
O=C1CCN(c2cccc(C#CC34CC(NC(=O)c5ccc(Nc6ncc7c(n6)-c6ccc(Cl)cc6C(c6c(F)cccc6F)=NC7)cc5)(C3)C4)c2)C(=O)N1 [Compound A76],1000 to 10000 nM,,,,,,
CP(C)(=O)c1cc(N2CCC(=O)NC2=O)ccc1N1CCN(C(=O)C2CCN(c3ccc(Nc4ncc5c(n4)-c4ccc(Cl)cc4C(c4c(F)cccc4F)=NC5)cc3)CC2)CC1 [Compound A287],,,,< 1000 nM,+ (Degradation ≤ 30%),+ (Degradation ≤ 30%),
O=C1CCN(c2cncc(N3CCN(C4CN(c5cccc(Nc6ncc7c(n6)-c6ccc(Cl)cc6C(c6c(F)cccc6F)=NC7)c5)C4)CC3)c2)C(=O)N1 [Compound A183],,,,< 1000 nM,+++ (Degradation > 70%),+++ (Degradation > 70%),
O=C1CCN(c2ccc(N3CCC(CN4CCN(C56CC(Nc7ncc8c(n7)-c7ccc(Cl)cc7C(c7c(F)cccc7F)=NC8)(C5)C6)CC4)C3)nc2)C(=O)N1 (centres unmarked) [Compound A231],,,,< 1000 nM,+++ (Degradation > 70%),+++ (Degradation > 70%),
O=C1CCN(c2ccc(N3CC(N4CCN(Cc5ccc(Nc6ncc7c(n6)-c6ccc(Cl)cc6C(c6c(F)cccc6F)=NC7)cc5)C(=O)C4)C3)nc2)C(=O)N1 [Compound A267],,,,,,,"IC50 [3, 9]: < 1000 nM; Percentage of AURKA Degradation Induced by 100 nM Compound in Jurkat Cells [2]: ++ (key: +: Degradation ≤ 30%; ++: 30% < Degradation ≤ 70%; +++: Degradation > 70%); Percentage of AURKA Degradation Induced by 1 µM Compound in Jurkat Cells [2]: +++ (key: +: Degradation ≤ 30%; ++: 30% < Degradation ≤ 70%; +++: Degradation > 70%)"
O=C1CCN(c2cccc(N3CCC(C#Cc4cccc(Nc5ncc6c(n5)-c5ccc(Cl)cc5C(c5c(F)cccc5F)=NC6)c4)CC3)c2)C(=O)N1 [Compound A127],,,,,,,"IC50 [3, 9]: < 1000 nM; Percentage of AURKA Degradation Induced by 100 nM Compound in Jurkat Cells [2]: +++ (key: +: Degradation ≤ 30%; ++: 30% < Degradation ≤ 70%; +++: Degradation > 70%); Percentage of AURKA Degradation Induced by 1 µM Compound in Jurkat Cells [2]: +++ (key: +: Degradation ≤ 30%; ++: 30% < Degradation ≤ 70%; +++: Degradation > 70%)"
O=C1CCN(c2ccc(N3CCC4(CC3)CC(NC(=O)c3ccc(Nc5ncc6c(n5)-c5ccccc5C(c5c(F)cccc5F)=NC6)cc3)C4)nc2)C(=O)N1 [Compound A116],,,,< 1000 nM,+++ (Degradation > 70%),+++ (Degradation > 70%),
N#Cc1cc(N2CCC(=O)NC2=O)cnc1N1CCN(C(=O)C2CCN(c3ccc(Nc4ncc5c(n4)-c4ccc(Cl)cc4C(c4c(F)cccc4F)=NC5)cc3)CC2)CC1 [Compound A326],,,,< 1000 nM,+++ (Degradation > 70%),+++ (Degradation > 70%),
O=C1CCN(c2cccc(N3CC(CN4CCOc5ccc(Nc6ncc7c(n6)-c6ccc(Cl)cc6C(c6c(F)cccc6F)=NC7)cc5C4)C3)c2)C(=O)N1 [Compound A237],,,,< 1000 nM,+++ (Degradation > 70%),+++ (Degradation > 70%),
Cc1nc(N2CCC3(CC2)CC(NC(=O)c2ccc(Nc4ncc5c(n4)-c4ccc(Cl)cc4C(c4c(F)cccc4F)=NC5)cc2)C3)ccc1N1CCC(=O)NC1=O [Compound A112],,,,< 1000 nM,+++ (Degradation > 70%),+++ (Degradation > 70%),
